Measured values published in patent US20250064779A1, “COMPOSITIONS AND METHODS FOR THE TREATMENT OF DEPRESSION” (Janssen Pharmaceuticals, Inc., priority 2022, published 2025).
Values joined by “and” are separate entries in the source; they are usually repeats but may differ in a detail not shown here. Equal entries are not always repeated.

Assays:
Type in all cases: in vivo, human
Weight change, Example 1 = conditions: n = 85; for Mean weight, Withdrawal Baseline, mean (SE): after 6 weeks in the double-blind treatment phase
Source text: At the lead-in baseline timepoint, the mean weight for subjects in the placebo group was 76.17 kg compared to 78.66 in the aticaprant group. After 6 weeks in the double-blind treatment phase, the mean weight in the placebo group was 75.75 kg compared to 78.57 kg in the aticaprant group. […] This is unexpected because other adjunctive treatments for MDD result in a mean weight increase. See, Thase M, et al. J Clin Psych. 2015: 76(9), 1224-1231; Thase, J Clin Psych. 2015, 76(9):1232-1240; El Khalili, Int J Neuropsychopharmacol. 2010, 13, 917-932; Marcus, J. Clin. Psychopharmacol. […] Nashville, Tenn, ACNP, 2008; Earley, American College of Neuropsychopharmacology, 2007, Annual Meeting Abstracts (Boca Raton, Fla, Dec. 9-13, 2007). Nashville, TN, ACNP, 2007). See, Table 29.

[1] = test system: adjunctive MDD, including treatment-resistant MDD (TRD) and MDD with suicidal ideation (SUI); assay: Biomarker signature (3MM, 2MM, CRP) analysis of MADRS treatment effect across clinical trials (Example 6)
Procedure: Samples of venous blood were obtained from patients and healthy control subjects from subject described in Example 5 and from the other clinical trials referenced herein. Serum or plasma was prepared from the samples of venous blood. Measurements of human CRP and IL-6-R were performed in serum using an MSD Sector 6000 with the kits #K151STD and K151ALC (MesoScale Discovery, Rockville, MD). Human TNFα was quantified in serum using a Simoa HD-1 analyzer with kit #143 (Quanterix, Lexington, MA). All measures were performed according to kit manufacturer's recommendations.
As used in the following biomarker assay analysis, treatment (TRT) refers to treatment with intranasal esketamine plus optionally an oral antidepressant and placebo (PBO) refers to treatment with a placebo plus optionally an oral antidepressant.
The following biomarker signatures were employed: • 3MM: Inflammatory biomarker signature with positive status defined by CRP >3 mg/L and (TNFα>4 pg/mL or sIL6R>25 ng/mL). • 2MM: Inflammatory biomarker signature with positive status defined by CRP >3 mg/L and sIL6R>25 ng/mL. • CRP: Inflammatory biomarker signature with positive status defined by CRP >3 mg/L/
The 3MM signature was tested in clinical trials for adjunctive MDD, including treatment-resistant MDD (TRD) and MDD with suicidal ideation (SUI). […] Significant was driven by Esketamine (ESK) TRD trials.

subjects with TRD [2] = assay: SDS remission (functional recovery), esketamine long-term study (Example 5); conditions: observed case
Source text: Functional recovery measured by SDS followed with some lag time after mood improvement. […] See, FIG. 32.

subjects with TRD [3] = assay: MADRS, intranasal esketamine plus oral antidepressant, open-label long-term study (Example 5)
subjects with TRD [4] = assay: PHQ-9 total score, esketamine long-term study (Example 5)
Source text: This is an open-label, multicenter, long-term study to evaluate the efficacy of intranasal esketamine plus a newly initiated oral antidepressant in subjects with TRD ([…] 3002/NCT02418585).
Each subject participated in up to 4 phases: up to 4-week screening phase (direct-entry subjects only), a 4-week open-label induction (IND) phase (direct-entry subjects and transferred-entry non responder subjects), a 48-week open-label optimization/maintenance (OP/MA) phase (all responder subjects from the open label IND phase of the current study, and transferred-entry responder subjects), and a 4-week follow-up phase. The maximum duration of the subject's participation in […] 3004 study was 60 weeks for direct-entry subjects; 56 weeks for transferred-entry non-responder subjects, and 52 weeks for transferred-entry responder subjects. The sample size of 750 was estimated to have at least 300 subjects received treatment with intranasal esketamine for 6 months and at least 100 subjects for 12 months. In addition, transfer-entry subjects were enrolled from 3005 study to get 100 elderly subjects dosed with esketamine. See, FIG. 30 for the trial design.
The efficacy analyses are based on the full (IND) analysis set and the full (OP/MA) analysis set. […] A total score (0 to 60) is calculated by summing the scores of all 10 items. […]

[5] = across the esketamine TRD trials, end of double blind treatment
[6] = endpoint of OP/MA phase, responders proceeding to OP/MA

Cc1cc(C)cc(C2CCCN2Cc2ccc(Oc3ccc(C(N)=O)cc3F)cc2)c1 (stereo not drawn) [aticaprant, 3-fluoro-4-4-2-(3,5-dimethylphenyl)pyrrolidin-1-yl-methylphenoxybenzamide]
Mean weight, Lead-in Baseline, mean (SE) (Weight change, Example 1): 78.66 kg | Mean weight, Screening, mean (SE) (Weight change, Example 1): 78.42 (1.65) kg | Weight: Absolute Change (Withdrawal − Lead-in) (Weight change, Example 1): -0.09 kg | Weight: Relative % Change (Weight change, Example 1; Withdrawal vs Lead-in): −0.11% | Mean weight, Withdrawal Baseline, mean (SE) (Weight change, Example 1): 78.57 kg | Mean weight, Withdrawal Baseline, mean (SE) (Weight change, Example 1; listed as Aticaprant): 78.57 (1.71) kg | Mean weight, Lead-in Baseline, mean (SE) (Weight change, Example 1; listed as Aticaprant): 78.66 (1.65) kg

CN[C@]1(c2ccccc2Cl)CCCCC1=O [esketamine, (S)-2-(2-chlorophenyl)-2-(methylamino)cyclohexanone]
treatment effect, change in MADRS, biomarker signature negative patients ([1]; TRD2003, Japanese patients): 2.83 points | treatment effect, change in MADRS, biomarker signature positive patients ([1]; TRD2003, Japanese patients, small n): 11.69 points | Signature advantage (difference between subtypes), 3MM ([1]; across the esketamine TRD trials): 5.8 point | Treatment effect over placebo in 3MM biomarker signature negative subjects (TE SigNeg) [1, 5]: 2 MADRS points and 2.0 MADRS points | Treatment effect over placebo in 3MM biomarker signature positive subjects (TE SigPos) [1, 5]: 7.8 MADRS points | 3MM status at baseline as predictor of treatment effect ([1]; esketamine trials with suicidal ideation (SUI)): did not predict treatment effect | remission rate measured by SDS (subjects with TRD [2]; OP/MA phase week 4): 25.2% | remission rate measured by SDS (subjects with TRD [2]; OP/MA phase week 48): 51.1% | remission rate measured by SDS (subjects with TRD [2]; endpoint of the IND phase): 21.1% | MADRS total score: mean change (SD) from Baseline (IND) to End Point (IND) (subjects with TRD [3]; 4-week open-label induction phase, intranasal 28/56/84 mg twice weekly): −16.4 (8.76) | MADRS total score: mean change (SD) from Baseline (OP/MA) to End Point (OP/MA) (subjects with TRD [3]; 48-week optimization/maintenance phase): 0.3 (8.12) | remission rate (MADRS total score ≤12) (subjects with TRD [3]; End Point, IND phase): 47.2% | response rate (≥50% improvement from Baseline (IND) in MADRS total score) (subjects with TRD [3]; End Point, IND phase): 78.4% | remitters (MADRS total score ≤12) (subjects with TRD [3]; [6]): 58.2% | responders (≥50% improvement in MADRS total score) (subjects with TRD [3]; [6]): 76.5% | PHQ-9 total score: mean change (SD) from Baseline (IND) to End Point (IND) (subjects with TRD [4]; induction phase): −8.9 (6.67) | PHQ-9 total score: mean change (SD) from Baseline (OP/MA) to End Point (OP/MA) (subjects with TRD [4]; optimization/maintenance phase): −0.2 (5.65)
